# Measured values published in patent US12252524B2, “GIP/GLP1 co-agonist compounds” (Eli Lilly and Company, priority 2018, dated 2025).
# Numbered stars: 1 amine (or outer) side, 2 acyl side, 3 side chain; on linkers, the order of the positions; unused ones are H or OH. Square brackets hold non-standard residues; d marks the D form. Side chains are listed from the residue outwards. Peptide text beside a SMILES is read from it. * marks the point of attachment. C20 diacid = O=C(O)CCCCCCCCCCCCCCCCCCC(=O)*; C18 diacid = O=C(O)CCCCCCCCCCCCCCCCC(=O)*; αMePhe(2-F) = C[C@](N)(Cc1ccccc1F)C(=O)O; γGlu = O=C(O)[C@H](CCC(=O)[*:2])N[*:1]; 4Pal = N[C@@H](Cc1ccncc1)C(=O)O; Nle = CCCC[C@H](N)C(=O)O; Orn = NCCC[C@H](N)C(=O)O; Dab = NCC[C@H](N)C(=O)O; AEEA = NCCOCCOCC(=O)O; Aib = CC(C)(N)C(=O)O
# What was measured:
# [1] = target: human GLP-1 receptor (GLP-1R) (Homo sapiens, UniProt P43220); test: cAMP pharmacological functional assay in presence of casein, hGLP-1R; type: cell-based; conditions: HEK293 cells expressing hGLP-1R, 0.1% Casein, geometric mean; read-out: hGLP1R cAMP Rel EC50 nM (SEM, n)
# [2] = target: T1, human GIP receptor (Homo sapiens, UniProt P48546); test: [125I]-GIP binding (SPA), human GIP receptor; conditions: read-out: hGIPR Ki, nM (SEM, n)
# T1 construct: expressed in transfected cells; crude membranes
# T1 sequence (P48546 22-466): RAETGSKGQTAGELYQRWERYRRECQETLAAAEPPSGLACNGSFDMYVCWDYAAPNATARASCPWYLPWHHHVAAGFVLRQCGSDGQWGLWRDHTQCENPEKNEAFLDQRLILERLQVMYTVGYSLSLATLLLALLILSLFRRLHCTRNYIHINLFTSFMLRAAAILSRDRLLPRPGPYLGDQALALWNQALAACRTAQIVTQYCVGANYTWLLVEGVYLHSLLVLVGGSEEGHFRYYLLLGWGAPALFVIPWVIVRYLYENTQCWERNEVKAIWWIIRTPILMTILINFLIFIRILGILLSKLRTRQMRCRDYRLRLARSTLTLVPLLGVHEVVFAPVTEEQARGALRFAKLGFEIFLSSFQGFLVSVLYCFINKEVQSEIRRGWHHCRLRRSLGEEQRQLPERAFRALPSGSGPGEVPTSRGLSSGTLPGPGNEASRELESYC
# [3] = target: T2, human Gcg receptor (Homo sapiens, UniProt P47871); test: [125I]-Glucagon binding (SPA), human Gcg receptor; conditions: read-out: hGLcgR Ki, nM (SEM, n)
# T2 construct: expressed in transfected cells; crude membranes
# Procedure, shortened: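 Crude membranes from cells expressing the receptor, prepared by hypotonic lysis in 50 mM Tris HCl pH 7.5 with protease inhibitors, homogenization and differential centrifugation, were used in a WGA-bead SPA. Binding buffer: 25 mM HEPES pH 7.4, 2.5 mM CaCl2, 1 mM MgCl2, bacitracin, Tween-20.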
# [4] = target: human GLP-1R (Homo sapiens, UniProt P43220); test: [125I]-GLP-1 binding (SPA), human GLP-1 receptor; design: expressed in transfected cells; crude membranes; conditions: read-out: hGLP1R Ki, (nM) (SEM, n)
# Procedure, shortened: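 Ki values are geometric means with SEM over independent replicates on different days, derived from IC50s fitted by four-parameter nonlinear regression. The assay used crude cell membranes in HEPES buffer, pH 7.4, containing CaCl2, MgCl2, bacitracin and TWEEN-20.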
# [5] = target: T3, gastric inhibitory peptide receptor (GIPR) (Homo sapiens, UniProt P48546); test: cAMP pharmacological functional assay in presence of casein, hGIPR; type: cell-based; conditions: HEK293 cells expressing hGIPR, 0.1% Casein, geometric mean; read-out: hGIPR cAMP Rel EC50 nM (SEM, n)
# T3 sequence (P48546 22-466): T1 sequence (P48546 22-466)
# Chain of human GLP-1R (P43220 24-463): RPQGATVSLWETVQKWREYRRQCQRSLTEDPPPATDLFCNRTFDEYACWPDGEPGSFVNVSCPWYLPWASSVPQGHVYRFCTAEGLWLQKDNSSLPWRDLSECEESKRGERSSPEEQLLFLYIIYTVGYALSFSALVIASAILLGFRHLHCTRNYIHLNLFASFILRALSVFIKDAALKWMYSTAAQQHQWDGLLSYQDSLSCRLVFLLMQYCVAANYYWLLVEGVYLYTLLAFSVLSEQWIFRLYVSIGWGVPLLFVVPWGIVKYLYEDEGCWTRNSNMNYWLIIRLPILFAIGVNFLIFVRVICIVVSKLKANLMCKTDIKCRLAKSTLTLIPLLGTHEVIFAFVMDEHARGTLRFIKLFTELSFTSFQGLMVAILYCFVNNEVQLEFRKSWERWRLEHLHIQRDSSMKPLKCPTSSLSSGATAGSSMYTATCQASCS
# Chain of human GLP-1 receptor (GLP-1R) (P43220 24-463): as above
# T2 sequence (P47871 26-477): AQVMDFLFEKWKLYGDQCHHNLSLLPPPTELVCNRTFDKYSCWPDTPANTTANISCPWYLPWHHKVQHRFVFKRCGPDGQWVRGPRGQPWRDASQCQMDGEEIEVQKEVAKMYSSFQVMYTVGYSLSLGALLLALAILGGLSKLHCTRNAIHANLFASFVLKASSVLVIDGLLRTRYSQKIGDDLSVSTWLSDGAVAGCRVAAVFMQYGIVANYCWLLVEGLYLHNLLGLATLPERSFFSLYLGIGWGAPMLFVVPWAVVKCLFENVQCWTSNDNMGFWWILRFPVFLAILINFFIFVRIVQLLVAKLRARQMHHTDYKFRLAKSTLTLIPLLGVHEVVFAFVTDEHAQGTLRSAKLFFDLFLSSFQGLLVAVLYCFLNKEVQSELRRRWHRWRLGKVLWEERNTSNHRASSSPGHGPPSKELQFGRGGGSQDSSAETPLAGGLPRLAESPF
structure (smiles),measurement,setting,value
CC[C@H](C)[C@H](NC(=O)[C@H](CC(C)C)NC(=O)[C@H](Cc1ccc(O)cc1)NC(=O)[C@H](CCC(=O)O)NC(=O)[C@@H](NC(=O)[C@H](Cc1ccccc1)NC(=O)[C@@H](NC(=O)C(C)(C)NC(=O)[C@H](CCC(N)=O)NC(=O)[C@H](C)NC(=O)[C@H](CCCCNC(=O)COCCOCCNC(=O)COCCOCCNC(=O)CC[C@H](NC(=O)CCCCCCCCCCCCCCCCC(=O)O)C(=O)O)NC(=O)[C@H](CCCCN)NC(=O)[C@H](CC(=O)O)NC(=O)[C@H](CC(C)C)NC(=O)[C@H](CC(C)C)NC(=O)[C@@H](NC(=O)[C@H](CO)NC(=O)[C@H](Cc1ccc(O)cc1)NC(=O)[C@H](CC(=O)O)NC(=O)[C@H](CO)NC(=O)[C@@H](NC(=O)[C@H](Cc1ccccc1)NC(=O)[C@@H](NC(=O)CNC(=O)[C@H](CCC(=O)O)NC(=O)C(C)(C)NC(=O)[C@@H](N)Cc1ccc(O)cc1)[C@@H](C)O)[C@@H](C)O)[C@@H](C)CC)[C@@H](C)O)[C@@H](C)CC)C(=O)N[C@@H](CCC(=O)O)C(=O)NCC(=O)NCC(=O)N1CCC[C@H]1C(=O)N[C@@H](CO)C(=O)N[C@@H](CO)C(=O)NCC(N)=O [Example 321] (H-Y[Aib]EGTFTSDYSILLDKK([AEEA-AEEA-γGlu-C18 diacid])AQ[Aib]TFIEYLIEGGPSSG-NH2),EC50,[1],0.204 nM
same,Ki,[2],0.064 nM
same,Ki,[3],770 nM
same,Ki,[4],4.2 nM
same,EC50,[5],0.0752 nM
CC[C@H](C)[C@H](NC(=O)[C@H](CC(C)C)NC(=O)[C@H](Cc1ccc(O)cc1)NC(=O)[C@@H](CCC(=O)O)NC(=O)[C@@H](NC(=O)[C@H](Cc1ccccc1)NC(=O)[C@H](CCC(=O)O)NC(=O)C(C)(C)NC(=O)[C@H](CCC(N)=O)NC(=O)[C@H](C)NC(=O)[C@H](CCCCNC(=O)COCCOCCNC(=O)COCCOCCNC(=O)CC[C@H](NC(=O)CCCCCCCCCCCCCCCCC(=O)O)C(=O)O)NC(=O)[C@H](CCN)NC(=O)[C@H](CC(=O)O)NC(=O)[C@H](CC(C)C)NC(=O)[C@H](CC(C)C)NC(=O)[C@@H](NC(=O)[C@H](CO)NC(=O)[C@H](Cc1ccncc1)NC(=O)[C@H](CC(=O)O)NC(=O)[C@H](CO)NC(=O)[C@@H](NC(=O)[C@](C)(Cc1ccccc1F)NC(=O)[C@@H](NC(=O)CNC(=O)[C@H](CCC(=O)O)NC(=O)C(C)(C)NC(=O)[C@@H](N)Cc1ccc(O)cc1)[C@@H](C)O)[C@@H](C)O)[C@@H](C)CC)[C@@H](C)CC)C(=O)N[C@@H](CCC(=O)O)C(=O)NCC(=O)NCC(=O)N1CCC[C@H]1C(=O)N[C@@H](CO)C(=O)N[C@@H](CO)C(=O)NCC(=O)N[C@@H](C)C(=O)N1CCC[C@H]1C(=O)N1CCC[C@H]1C(=O)N1CCC[C@H]1C(=O)N[C@@H](CO)C(N)=O [Example 234] (H-Y[Aib]EGT[αMePhe(2-F)]TSD[4Pal]SILLD[Dab]K([AEEA-AEEA-γGlu-C18 diacid])AQ[Aib]EFI[dE]YLIEGGPSSGAPPPS-NH2),EC50,[1],0.0926 nM
same,Ki,[2],0.0563 nM
same,Ki,[3],> 1100 nM
same,Ki,[4],10.9 nM
same,EC50,[5],0.0372 nM
CC[C@H](C)[C@H](NC(=O)[C@H](Cc1ccccc1)NC(=O)[C@H](C)NC(=O)C(C)(C)NC(=O)[C@H](CCC(N)=O)NC(=O)[C@H](C)NC(=O)[C@H](CCCCNC(=O)COCCOCCNC(=O)COCCOCCNC(=O)CC[C@H](NC(=O)CCCCCCCCCCCCCCCCCCC(=O)O)C(=O)O)NC(=O)[C@H](CO)NC(=O)[C@H](CC(=O)O)NC(=O)[C@H](CC(C)C)NC(=O)[C@H](CC(C)C)NC(=O)[C@@H](NC(=O)[C@H](CO)NC(=O)[C@H](Cc1ccc(O)cc1)NC(=O)[C@H](CC(=O)O)NC(=O)[C@H](CO)NC(=O)[C@@H](NC(=O)[C@H](Cc1ccccc1)NC(=O)[C@@H](NC(=O)CNC(=O)[C@H](CCC(=O)O)NC(=O)C(C)(C)NC(=O)[C@@H](N)Cc1ccc(O)cc1)[C@@H](C)O)[C@@H](C)O)[C@@H](C)CC)C(=O)N[C@@H](CCC(=O)O)C(=O)N[C@@H](Cc1ccc(O)cc1)C(=O)N[C@@H](CC(C)C)C(=O)N[C@@H](CC(C)C)C(=O)N[C@@H](CCC(=O)O)C(=O)NCC(=O)NCC(=O)N1CCC[C@H]1C(=O)N[C@@H](CO)C(=O)N[C@@H](CO)C(=O)NCC(=O)N[C@@H](C)C(=O)N1CCC[C@H]1C(=O)N1CCC[C@H]1C(=O)N1CCC[C@H]1C(=O)N[C@@H](CO)C(N)=O [Example 7] (H-Y[Aib]EGTFTSDYSILLDSK([AEEA-AEEA-γGlu-C20 diacid])AQ[Aib]AFIEYLLEGGPSSGAPPPS-NH2),EC50,[1],0.47 nM
same,Ki,[2],0.252 nM
same,Ki,[3],198 nM
same,Ki,[4],43.3 nM
same,EC50,[5],0.461 nM
CC[C@H](C)[C@H](NC(=O)[C@H](CC(C)C)NC(=O)[C@H](Cc1ccc(O)cc1)NC(=O)[C@H](CCC(=O)O)NC(=O)[C@@H](NC(=O)[C@H](Cc1ccccc1)NC(=O)[C@H](C)NC(=O)C(C)(C)NC(=O)[C@H](CCC(N)=O)NC(=O)[C@H](C)NC(=O)[C@H](CCCCNC(=O)COCCOCCNC(=O)CC[C@H](NC(=O)[C@H]1CC[C@H](CNC(=O)CCCCCCCCCCCCCCCCCCC(=O)O)CC1)C(=O)O)NC(=O)[C@H](CCCCN)NC(=O)[C@H](CC(=O)O)NC(=O)[C@H](CC(C)C)NC(=O)[C@H](CC(C)C)NC(=O)[C@@H](NC(=O)[C@H](CO)NC(=O)[C@H](Cc1ccc(O)cc1)NC(=O)[C@H](CC(=O)O)NC(=O)[C@H](CO)NC(=O)[C@@H](NC(=O)[C@H](Cc1ccccc1)NC(=O)[C@@H](NC(=O)CNC(=O)[C@H](CCC(=O)O)NC(=O)C(C)(C)NC(=O)[C@@H](N)Cc1ccc(O)cc1)[C@@H](C)O)[C@@H](C)O)[C@@H](C)CC)[C@@H](C)CC)C(=O)N[C@@H](CCC(=O)O)C(=O)NCC(=O)NCC(=O)N1CCC[C@H]1C(=O)N[C@@H](CO)C(=O)N[C@@H](CO)C(=O)NCC(=O)N[C@@H](C)C(=O)N1CCC[C@H]1C(=O)N1CCC[C@H]1C(=O)N1CCC[C@H]1C(=O)N[C@@H](CO)C(N)=O [Example 110],EC50,[1],0.179 nM
same,Ki,[2],0.0395 nM
same,Ki,[3],73.9 nM
same,Ki,[4],4.38 nM
same,EC50,[5],0.218 nM
CCCC[C@H](NC(=O)[C@@H](NC(=O)[C@H](CO)NC(=O)[C@H](Cc1ccc(O)cc1)NC(=O)[C@H](CC(=O)O)NC(=O)[C@H](CO)NC(=O)[C@@H](NC(=O)[C@](C)(Cc1ccccc1F)NC(=O)[C@@H](NC(=O)CNC(=O)[C@H](CCC(=O)O)NC(=O)C(C)(C)NC(=O)[C@@H](N)Cc1ccc(O)cc1)[C@@H](C)O)[C@@H](C)O)[C@@H](C)CC)C(=O)N[C@@H](CC(C)C)C(=O)N[C@@H](CC(=O)O)C(=O)N[C@@H](CCCN)C(=O)N[C@@H](CCCCNC(=O)COCCOCCNC(=O)COCCOCCNC(=O)CC[C@H](NC(=O)CCCCCCCCCCCCCCCCC(=O)O)C(=O)O)C(=O)N[C@@H](C)C(=O)N[C@@H](CCC(N)=O)C(=O)NC(C)(C)C(=O)N[C@@H](CCC(=O)O)C(=O)N[C@@H](Cc1ccccc1)C(=O)N[C@H](C(=O)N[C@H](CCC(=O)O)C(=O)N[C@@H](Cc1ccc(O)cc1)C(=O)N[C@@H](CC(C)C)C(=O)N[C@H](C(=O)N[C@@H](CCC(=O)O)C(=O)NCC(=O)NCC(=O)N1CCC[C@H]1C(=O)N[C@@H](CO)C(=O)N[C@@H](CO)C(=O)NCC(=O)N[C@@H](C)C(=O)N1CCC[C@H]1C(=O)N1CCC[C@H]1C(=O)N1CCC[C@H]1C(=O)N[C@@H](CO)C(N)=O)[C@@H](C)CC)[C@@H](C)CC [Example 249] (H-Y[Aib]EGT[αMePhe(2-F)]TSDYSI[Nle]LD[Orn]K([AEEA-AEEA-γGlu-C18 diacid])AQ[Aib]EFI[dE]YLIEGGPSSGAPPPS-NH2),EC50,[1],0.0446 nM
same,Ki,[2],0.0394 nM
same,Ki,[3],> 1000 nM
same,Ki,[4],2.35 nM
same,EC50,[5],0.0437 nM
CC[C@H](C)[C@H](NC(=O)[C@H](Cc1ccccc1)NC(=O)[C@H](C)NC(=O)C(C)(C)NC(=O)[C@H](CCC(N)=O)NC(=O)[C@H](C)NC(=O)[C@H](CCCCNC(=O)COCCOCCNC(=O)COCCOCCNC(=O)CC[C@H](NC(=O)CCCCCCCCCCCCCCCCCCC(=O)O)C(=O)O)NC(=O)[C@H](CCCCN)NC(=O)[C@H](CC(=O)O)NC(=O)[C@H](CC(C)C)NC(=O)[C@](C)(CC(C)C)NC(=O)[C@@H](NC(=O)[C@H](CO)NC(=O)[C@H](Cc1ccc(O)cc1)NC(=O)[C@H](CC(=O)O)NC(=O)[C@H](CO)NC(=O)[C@@H](NC(=O)[C@H](Cc1ccccc1)NC(=O)[C@@H](NC(=O)CNC(=O)[C@H](CCC(=O)O)NC(=O)C(C)(C)NC(=O)[C@@H](N)Cc1ccc(O)cc1)[C@@H](C)O)[C@@H](C)O)[C@@H](C)CC)C(=O)N[C@@H](CCC(=O)O)C(=O)N[C@@H](Cc1ccc(O)cc1)C(=O)N[C@@](C)(CC(C)C)C(=O)N[C@H](C(=O)N[C@@H](CCC(=O)O)C(=O)NCC(=O)NCC(=O)N1CCC[C@H]1C(=O)N[C@@H](CO)C(=O)N[C@@H](CO)C(=O)NCC(=O)N[C@@H](C)C(=O)N1CCC[C@H]1C(=O)N1CCC[C@H]1C(=O)N1CCC[C@H]1C(=O)N[C@@H](CO)C(N)=O)[C@@H](C)CC [Example 75],EC50,[1],1.49 nM
same,Ki,[2],0.103 nM
same,Ki,[3],283 nM
same,Ki,[4],24.4 nM
same,EC50,[5],0.214 nM
